The text below walks through data of US6623741B1, “Methods and compositions for inhibition of membrane fusion-associated events including RSV transmission” (Trimeris, Inc., priority 2000, dated 2003).

Like-named read-outs stand apart in the source and are kept apart here.

For assay [1], the system named is HIV-1IIIB. The class given is cell-based. Here is the method:
Cell Fusion Assays For Anti-HIV Activity:
Cell fusion assays were performed as previously described (Matthews et al., 1987, Proc. Natl. Acad. Sci. USA 84: […]). CEM cells (7×10^4) were incubated with HIV-1IIIB chronically infected CEM cells (10^4) in 96-well flat-bottomed half-area plates (Costar) in 100 μl culture medium. Peptide and fusion proteins at various concentrations in 10 μl culture medium were incubated with the cell mixtures at 37° C. for 24 hours. Multinucleated syncytia were estimated with microscopic examination.

In a further assay the test system is HIV-2NIHZ. Briefly: Cell free virus infection assay (RT production, CEM cells). It is filed as cell-based. As to the method:
(§1) Synthetic peptides were incubated at 37° C. with either 247 TCID50 (for experiment depicted in FIG. 2), or 62 TCID50 (for experiment depicted in FIG. 3) units of HIV-1LAI virus or 25 TCID50 units of HIV-2^NIHZ and CEM CD4^+ cells at peptide concentrations of 0, 0.04, 0.4, 4.0, and 40 μg/ml for 7 days. The resulting reverse transcriptase (RT) activity in counts per minute was determined using the assay described, below, in Section 6.1.5. See, Reed, L. J. et al., 1938, Am. J. Hyg. 27: 493-497 for an explanation of TCID50 calculations.
The micro-reverse transcriptase (RT) assay was adapted from Goff et al. (Goff, S. et al., 1981, J. Virol. 38:239-248) and Willey et al. (Willey, R. et al., 1988, J. Virol. 62:139-147). Supernatants from virus/cell cultures are adjusted to 1% Triton-X100. A 10 μl sample of supernatant was added to 50 μl of RT cocktail in a 96-well U-bottom microtitre plate and the samples incubated at 37° C. for 90 min. The RT cocktail contained 75 mM KCl, 2 mM dithiothreitol, 5 mM MgCl2, 5 μg/ml poly A (Pharmacia, cat. No. 27-4110-01), 0.25 units/ml oligo dT (Pharmacia, cat. No. 27-7858-01), 0.05% NP40, 50 mM Tris-HCl, pH 7.8, 0.5 μM non-radioactive dTTP, and 10 μCi/ml ^32P-dTTP (Amersham, cat. No. PB. 10167). […]

For assay [2], the system named is Fab-d (human recombinant Fab). Description: ELISA analysis of Fab-d binding / DP178 binding to the leucine zipper motif of gp41. The note with it: reagent alone. Here is the method: ELISA Analysis of DP178 Binding to the Leucine Zipper Motif of gp41:
Each well was washed three times with distilled water then blocked with 3% bovine serum albumin (BSA) for 2 hours. After blocking, peptides with 0.5% BSA in TBST (40 mM Tris-HCl pH7.5, 150 mM NaCl, 0.05% Tween 20) were added to the ELISA plates and incubated at room temperature for 1 hour. After washing three times with TBST, Fab-d was added at a concentration of 10 ng/ml with 0.5% BSA in TBST. The plates were washed three times with TBST after incubation at room temperature for 1 hour. Horseradish peroxidase (HRP) conjugated goat antihuman Fab antiserum at a 2000 fold dilution in TBST with 0.5% BSA was added to each well and incubated at room temperature for 45 minutes. The plates were then washed four times with TBST. The peroxidase substrate o-phenylene diamine (2.5 mg/ml) and 0.15% H2O2 were added to develop the color. The reaction was stopped with an equal volume of 4.5 N H2SO4 after incubation at room temperature for 10 minutes. The optical density of the stopped reaction mixture was measured with a micro plate reader (Molecular Design) at 490 nm.
A general note: ELISA stands for enzyme-linked immunosorbent assay.

In assay [3] the test system is HIV-1 (HIV-1LAI, HIV-1MN, HIV-1RF, HIV-1SF2). It is filed as cell-based. Here is the method: Approximately 7×10^4 Molt cells were incubated with 1×10^4 CEM cells chronically infected with the HIV-1LAI virus in 96-well plates (one-half area cluster plates; Costar, Cambridge, Mass.) in a final volume of 100 μl culture medium as previously described (Matthews, T. J. et al., 1987, Proc. Natl. Acad. Sci. USA 84: 5424-5428). Peptide inhibitors were added in a volume of 10 μl and the cell mixtures were incubated for 24 hr. at 37° C. At that time, multinucleated giant cells were estimated by microscopic examination at a 40× magnification which allowed visualization of the entire well in a single field.
The initial screen for antiviral activity assayed peptides' ability to block syncytium formation induced by overnight co-cultivation of uninfected Molt 4 cells with chronically HIV-1 infected CEM cells. […] In the first of these experiments, serial DP178 (SEQ ID NO:15) peptide concentrations between 10 μg/ml and 12.5 ng/ml were tested for blockade of the cell fusion process. For these experiments, CEM cells chronically infected with either HIV-1LAI, HIV-1MN, HIV-1RF, or HIV-1SF2 virus were cocultivated overnight with uninfected Molt 4 cells.
The next series of experiments involved the preparation and testing of a DP178 (SEQ ID NO:15) homolog for its ability to inhibit HIV-1-induced syncytia formation.
(§2) The next series of experiments involved a comparison of DP178 (SEQ ID NO:15) HIV-1 and HIV-2 inhibitory activity.

The test system of the next assay is HIV-2. Description: Cell fusion assay: HIV-2 mediated syncytia formation. The class given is cell-based.
From the text: as §2

In assay [4] the test system is HIV-1IIIB. To be noted: 1IIIB.
Another assay deals with HIV-1LAI. To be noted: CEM cells, 7 days. Here is the method:
Cell Free Virus Infection Assay:
as §1
Reverse Transcriptase Assay:
The micro-reverse transcriptase (RT) assay was adapted from Goff et al. (Goff, S. et al., 1981, J. Virol. 38:239-248) and Willey et al. (Willey, R. et al., 1988, J. Virol. 62:139-147). Supernatants from virus/cell cultures are adjusted to 1% Triton-X100. A 10 μl sample of supernatant was added to 50 μl of RT cocktail in a 96-well U-bottom microtitre plate and the samples incubated at 37° C. for 90 min. The RT cocktail contained 75 mM KCl, 2 mM dithiothreitol, 5 mM MgCl2, 5 μg/ml poly A (Pharmacia, cat. No. 27-4110-01), 0.25 units/ml oligo dT (Pharmacia, cat. No. 27-7858-01), 0.05% NP40, 50 mM Tris-HCl, pH 7.8, 0.5 μM non-radioactive dTTP, and 10 μCi/ml ^32P-dTTP (Amersham, cat. No. PB. 10167).
After the incubation period, 40 μl of reaction mixture was applied to a Schleicher and Schuell (S+S) NA45 membrane (or DE81 paper) saturated in 2×SSC buffer (0.3 M NaCl and […] sodium citrate) held in a S+S Minifold over one sheet of GB003 (S+S) filter paper, with partial vacuum applied. Each well of the minifold was washed four times with 200 μl 2×SSC, under full vacuum. The membrane was removed from the minifold and washed 2 more times in a pyrex dish with an excess of 2×SSC. Finally, the membrane was drained on absorbent paper, placed on Whatman #3 paper, covered with Saran wrap, and exposed to film overnight at −70° C.
DP178 (SEQ ID NO:15) was next tested for its ability to block CD-4^+ CEM cell infection by cell-free HIV-1 virus. […]

As for Enfuvirtide, the “syncytia in the presence of the peptide” value in the assay with HIV-1IIIB [1] (10 nM) is reported as “no observable syncytia”. In addition, the 90% effect concentration (IC90) worked out at 1 nM in the assay with HIV-1IIIB [1] (HIV-1 induced membrane fusion, read-out: Cell Fusion (IC90)) and 80 nM in the assay on HIV-1IIIB [4]. Further, the “IC50 for HIV-2NIHZ (in words)” value in the assay with HIV-2NIHZ (25 TCID50 HIV-2NIHZ, CEM cells, 7 days) is recorded as “much higher IC50”. The “potency as HIV-1 inhibitor versus HIV-2 inhibitor” value in the assay on HIV-2NIHZ (cell-free infection) is listed as “two logs more potent”. The “Fab-d binding (in words)” value in assay [2] was “failed to bind”. The “concentration affording complete protection against syncytium formation (lowest concentration tested)” value in assay [3] (HIV-1LAI infected CEM + Molt 4 cells) is no more than 12.5 ng/mL; in assay [3] (HIV-1MN, HIV-1RF, HIV-1SF2 infected CEM + Molt 4 cells), no more than 100 ng/mL. For the same substance, the “concentration completely blocking virus-induced syncytia formation (lowest effective inhibitory concentration)” value in assay [3] (HIV-1 mediated CD-4+ cell-cell fusion) was 1 to 10 ng/mL. The “concentration blocking HIV-1-mediated syncytia formation” value in assay [3] (HIV-1 vs HIV-2 comparison, FIG. 5) was “below 1 ng/ml”. The “selectivity as inhibitor of HIV-1-mediated over HIV-2 mediated cell fusion” value in the assay on HIV-2 was determined as 4 log. Further, in the assay with HIV-2 (FIG. 5), the “concentration failing to block HIV-2 mediated syncytia formation” value was greater than 10 µg/mL. The results for the “IC50 (RT production)” value in the assay with HIV-1LAI (62 TCID50 HIV-1LAI) and in the assay on HIV-1LAI (247 TCID50 HIV-1LAI) were “about 31 ng/ml” and 0.09 µg/mL, respectively.

Usually IC90 stands for the concentration needed for an effect of 90%.
